From US10000507B2, “Furo- and thieno-pyridine carboxamide compounds useful as pim kinase inhibitors” (Incyte Corporation, priority 2013, dated 2018)

Key:
Format in all cases: biochemical
[1] = biological target: Pim-1 (Homo sapiens (Human), UniProt P11309); experiment: Pim-1 kinase assay; details: 1 mM ATP, biotin-labeled BAD peptide substrate; read-out: Pim1 IC50
Experimental: (§1) Pim-1 and Pim-3 kinase assays-20 μL reactions were run in white 384 well polystyrene plates dotted with 0.8 μL compound/DMSO in the assay buffer (50 mM Tris, pH 7.5, 0.01% Tween-20, 5 mM MgCl2, 0.01% BSA, 5 mM DTT), containing […] Biotin-labeled BAD peptide substrate (AnaSpec 62269), 1 mM ATP, and 2.5 pM (Pim-1, Invitrogen PV3503) or 1.25 pM (Pim-3, Millipore 14-738) enzyme for 1 h at 25° C. Reactions were stopped by addition of 10 μL STOP Buffer (150 mM Tris, pH=7.5, 150 mM NaCl, 75 mM EDTA, 0.01% Tween-20, 0.3% BSA) supplemented with Phospho-Bad (Ser112) Antibody (Cell Signaling 9291) diluted 666-fold, and Streptavidin donor beads (PerkinElmer 6760002) along with Protein-A acceptor beads (PerkinElmer 6760137) at 15 μg/mL each. Supplementation of the STOP buffer with beads and stopping the reactions were done under reduced light. Prior to the stopping reactions STOP buffer with beads was pre-incubated for 1 h in the dark at room temperature. After stopping the reactions, plates were incubated for 1 h in the dark at room temperature before reading on a PHERAstar FS plate reader (BMG Labtech) under reduced light.

[2] = biological target: Pim-3 (Homo sapiens (Human), UniProt Q86V86); experiment: Pim-3 kinase assay; details: 1 mM ATP, biotin-labeled BAD peptide substrate; read-out: Pim3 IC50
Experimental: as §1

[3] = biological target: Pim-2 (Homo sapiens (Human), UniProt Q9P1W9); experiment: Pim-2 kinase assay; details: 1 mM ATP, fluorescein-labeled CREBtide peptide substrate; read-out: Pim2 IC50
Pim-2, sequence (Q9P1W9 whole entry): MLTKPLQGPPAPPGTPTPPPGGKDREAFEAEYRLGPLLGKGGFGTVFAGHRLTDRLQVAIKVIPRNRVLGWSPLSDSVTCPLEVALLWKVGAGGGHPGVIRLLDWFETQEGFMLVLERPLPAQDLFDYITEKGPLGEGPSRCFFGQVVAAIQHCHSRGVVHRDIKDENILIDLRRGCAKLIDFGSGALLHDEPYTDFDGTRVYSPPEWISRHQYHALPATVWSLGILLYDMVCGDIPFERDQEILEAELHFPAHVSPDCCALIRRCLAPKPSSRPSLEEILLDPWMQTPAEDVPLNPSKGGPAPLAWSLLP
Experimental: Pim-2 kinase assay-20 μL reactions were run in white 384 well polystyrene plates dotted with 0.8 μL compound/DMSO in the assay buffer (50 mM Tris, pH 7.5, 0.01% Tween-20, 5 mM MgCl2, 0.01% BSA, 5 mM DTT), containing 0.05 μm Fluorescein-labeled CREBtide peptide substrate (Invitrogen PV3508), 1 mM ATP, and 1 nM enzyme (Invitrogen PV3649) for 2 h at 25° C. Reactions were stopped by addition of 10 μL TR-FRET Dilution Buffer (Invitrogen PV3574) with 30 mM EDTA and 1.5 nM LanthaScreen Tb-CREB pSer133 antibody (Invitrogen PV3566). After 30 min. incubation at room temperature, plates were read on a PHERAstar FS plate reader (BMG Labtech).

Pim-1, sequence (P11309 whole entry): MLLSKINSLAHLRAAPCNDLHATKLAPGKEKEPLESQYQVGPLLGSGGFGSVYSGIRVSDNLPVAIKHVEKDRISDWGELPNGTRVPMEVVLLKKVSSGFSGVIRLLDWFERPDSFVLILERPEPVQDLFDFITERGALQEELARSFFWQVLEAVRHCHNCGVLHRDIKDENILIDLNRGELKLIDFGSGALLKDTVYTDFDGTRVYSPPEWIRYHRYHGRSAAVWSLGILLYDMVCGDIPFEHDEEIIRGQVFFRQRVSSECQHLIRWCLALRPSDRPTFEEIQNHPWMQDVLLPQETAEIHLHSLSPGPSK

Compound | IC50 [1] [µM] | IC50 [2] [µM] | IC50 [3] [µM]
Nc1oc2cccnc2c1C(=O)Nc1cnccc1N1C[C@@H](N)[C@H](O)[C@@H](C(F)(F)F)C1 (single isomer, unassigned) [Example 87 (Diastereoisomer 2)] | ≤ 0.01 | ≤ 0.01 | 0.01 to 0.1
Nc1sc2ccc(Cl)nc2c1C(=O)Nc1cnccc1N1CCC[C@H](N)C1 (stereo in doubt) [Example 40, 2-Amino-N-[4-(3-aminopiperidin-1-yl)pyridin-3-yl]-5-chlorothieno[3,2-b]pyridine-3-carboxamide] | ≤ 0.01 | 0.01 to 0.1 | > 2
Cc1ccc2sc(N)c(C(=O)Nc3cnccc3N3CCC[C@H](N)C3)c2n1 (stereo in doubt) [Example 42, 2-Amino-N-[4-(3-aminopiperidin-1-yl)pyridin-3-yl]-5-methylthieno[3,2-b]pyridine-3-carboxamide] | > 0.04 | > 0.04 | > 2
Cn1ncc(NC(=O)c2c(N)sc3cccnc23)c1N1CCCC(N)CC1 (stereo not drawn) [Example 1, 2-Amino-N-[5-(4-aminoazepan-1-yl)-1-methyl-1H-pyrazol-4-yl]thieno[3,2-b]pyridine-3-carboxamide] | ≤ 0.01 | ≤ 0.01 | 0.1 to 1
Cn1ncc(NC(=O)c2c(N)sc3cccnc23)c1N1CCC[C@H](N)C1 [Example 2, 2-Amino-N-{5-[(3S)-3-aminopiperidin-1-yl]-1-methyl-1H-pyrazol-4-yl}thieno[3,2-b]pyridine-3-carboxamide] | ≤ 0.01 | ≤ 0.01 | 0.1 to 1
Cn1ncc(NC(=O)c2c(N)sc3cccnc23)c1N1CCC[C@@H](N)C1 [Example 3, 2-Amino-N-{5-[(3R)-3-aminopiperidin-1-yl]-1-methyl-1H-pyrazol-4-yl}thieno[3,2-b]pyridine-3-carboxamide] | ≤ 0.01 | ≤ 0.01 | > 2
Cn1ncc(NC(=O)c2c(N)sc3cccnc23)c1N1CCCNCC1 [Example 4, 2-Amino-N-[5-(1,4-diazepan-1-yl)-1-methyl-1H-pyrazol-4-yl]thieno[3,2-b]pyridine-3-carboxamide] | ≤ 0.01 | ≤ 0.01 | > 1
Cn1ncc(NC(=O)c2c(N)sc3cccnc23)c1-c1ccc2c(c1)C(N)CC2 (stereo not drawn) [Example 5, 2-Amino-N-[5-(3-amino-2,3-dihydro-1H-inden-5-yl)-1-methyl-1H-pyrazol-4-yl]thieno[3,2-b]pyridine-3-carboxamide] | ≤ 0.01 | ≤ 0.01 | 0.1 to 1
Nc1sc2cccnc2c1C(=O)Nc1cnccc1N1CCC[C@H](N)C1 [Example 6, 2-Amino-N-{4-[(3S)-3-aminopiperidin-1-yl]pyridin-3-yl}thieno[3,2-b]pyridine-3-carboxamide] | ≤ 0.01 | ≤ 0.01 | 0.1 to 1
Nc1sc2cccnc2c1C(=O)Nc1cnccc1N1CCC[C@@H](N)C1 [Example 7, 2-Amino-N-{4-[(3R)-3-aminopiperidin-1-yl]pyridin-3-yl}thieno[3,2-b]pyridine-3-carboxamide] | ≤ 0.01 | > 0.04 | > 2
Nc1sc2cccnc2c1C(=O)Nc1cnccc1N1CCCNCC1 [Example 8, 2-Amino-N-[4-(1,4-diazepan-1-yl)pyridin-3-yl]thieno[3,2-b]pyridine-3-carboxamide] | ≤ 0.01 | > 0.04 | > 2
Nc1sc2cccnc2c1C(=O)Nc1cnccc1N1CCCC(N)CC1 (stereo not drawn) [Example 9, 2-Amino-N-[4-(4-aminoazepan-1-yl)pyridin-3-yl]thieno[3,2-b]pyridine-3-carboxamide] | 0.01 to 0.1 | > 0.04 | > 2
COc1cnc2c(C(=O)Nc3cnccc3N3CCC[C@H](N)C3)c(N)sc2c1 [Example 12, 2-Amino-N-{4-[(3S)-3-aminopiperidin-1-yl]pyridin-3-yl}-6-methoxythieno[3,2-b]pyridine-3-carboxamide] | ≤ 0.01 | ≤ 0.01 | 0.1 to 1
COc1cnc2c(C(=O)Nc3cnn(C)c3N3CCCC(N)CC3)c(N)sc2c1 (stereo not drawn) [Example 13, 2-Amino-N-[5-(4-aminoazepan-1-yl)-1-methyl-1H-pyrazol-4-yl]-6-methoxythieno[3,2-b]pyridine-3-carboxamide] | ≤ 0.01 | ≤ 0.01 | 0.01 to 0.1
Nc1sc2cc(OC3CC3)cnc2c1C(=O)Nc1cnccc1N1CCC[C@H](N)C1 [Example 14, 2-Amino-N-{4-[(3S)-3-aminopiperidin-1-yl]pyridin-3-yl}-6-cyclopropoxythieno[3,2-b]pyridine-3-carboxamide] | ≤ 0.01 | ≤ 0.01 | > 2
C[C@@H]1C[C@H](N)CN(c2ccncc2NC(=O)c2c(N)sc3cccnc23)C1 [Example 15, 2-Amino-N-{4-[(3S,5R)-3-amino-5-methyl-piperidin-1-yl]pyridin-3-yl}-thieno[3,2-b]pyridine-3-carboxamide] | ≤ 0.01 | ≤ 0.01 | 0.1 to 1
COc1ccnc2c(C(=O)Nc3cnccc3N3CCC[C@H](N)C3)c(N)sc12 [Example 16, 2-Amino-N-{4-[(3S)-3-aminopiperidin-1-yl]pyridin-3-yl}-7-methoxythieno[3,2-b]pyridine-3-carboxamide] | ≤ 0.01 | ≤ 0.01 | 0.1 to 1
COc1ccnc2c(C(=O)Nc3cnn(C)c3N3CCCC(N)CC3)c(N)sc12 (stereo not drawn) [Example 17, 2-Amino-N-[5-(4-aminoazepan-1-yl)-1-methyl-1H-pyrazol-4-yl]-7-methoxythieno[3,2-b]pyridine-3-carboxamide] | ≤ 0.01 | ≤ 0.01 | ≤ 0.01
CC(C)Oc1ccnc2c(C(=O)Nc3cnccc3N3CCC[C@H](N)C3)c(N)sc12 [Example 18, 2-Amino-N-{4-[(3S)-3-aminopiperidin-1-yl]pyridin-3-yl}-7-isopropoxythieno[3,2-b]pyridine-3-carboxamide] | > 0.04 | ≤ 0.01 | > 1
CC(C)Oc1ccnc2c(C(=O)Nc3cnn(C)c3N3CCCC(N)CC3)c(N)sc12 (stereo not drawn) [Example 19, 2-Amino-N-[5-(4-aminoazepan-1-yl)-1-methyl-1H-pyrazol-4-yl]-7-isopropoxythieno[3,2-b]pyridine-3-carboxamide] | ≤ 0.01 | ≤ 0.01 | 0.01 to 0.1
CCOc1ccnc2c(C(=O)Nc3cnccc3N3CCC[C@H](N)C3)c(N)sc12 [Example 20, 2-Amino-N-{4-[(3S)-3-aminopiperidin-1-yl]pyridin-3-yl}-7-ethoxythieno[3,2-b]pyridine-3-carboxamide] | ≤ 0.01 | ≤ 0.01 | 0.1 to 1
CCc1cnc2c(C(=O)Nc3cnccc3N3CCC[C@H](N)C3)c(N)sc2c1 [Example 22, 2-Amino-N-{4-[(3S)-3-aminopiperidin-1-yl]pyridin-3-yl}-6-ethylthieno[3,2-b]pyridine-3-carboxamide] | ≤ 0.01 | ≤ 0.01 | 0.01 to 0.1
CCc1cnc2c(C(=O)Nc3cnn(C)c3N3CCCC(N)CC3)c(N)sc2c1 (stereo not drawn) [Example 23, 2-Amino-N-[5-(4-aminoazepan-1-yl)-1-methyl-1H-pyrazol-4-yl]-6-ethylthieno[3,2-b]pyridine-3-carboxamide] | ≤ 0.01 | ≤ 0.01 | 0.01 to 0.1
Nc1sc2cc(-c3ccccc3)cnc2c1C(=O)Nc1cnccc1N1CCC[C@H](N)C1 [Example 24, 2-Amino-N-{4-[(3S)-3-aminopiperidin-1-yl]pyridin-3-yl}-6-phenylthieno[3,2-b]pyridine-3-carboxamide] | ≤ 0.01 | ≤ 0.01 | > 1
Cn1ncc(NC(=O)c2c(N)sc3cc(-c4ccccc4)cnc23)c1N1CCCC(N)CC1 (stereo not drawn) [Example 25, 2-Amino-N-[5-(4-aminoazepan-1-yl)-1-methyl-1H-pyrazol-4-yl]-6-phenylthieno[3,2-b]pyridine-3-carboxamide] | ≤ 0.01 | ≤ 0.01 | 0.01 to 0.1
Nc1sc2cc(-c3c(F)cccc3F)cnc2c1C(=O)Nc1cnccc1N1CCC[C@H](N)C1 [Example 26, 2-Amino-N-{4-[(3S)-3-aminopiperidin-1-yl]pyridin-3-yl}-6-(2,6-difluorophenyl)-thieno[3,2-b]pyridine-3-carboxamide] | ≤ 0.01 | ≤ 0.01 | 0.01 to 0.1
